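All cell lines were grown in 96-well plates and treated with compound for 48 hours. Abbreviation: GI50, concentration required for 50% inhibition of growth. TGI: concentration producing complete growth inhibition.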
How the values were obtained:
Assay in all cases: DTP human tumour cell line panel, 48 h
[1] = test system: NCI-H522 lung
[2] = test system: UO-31 renal
[3] = test system: NCI-H226 lung
[4] = test system: HOP-92 NSCLC
[5] = test system: IGROV1 ovarian
[6] = test system: HL-60(TB) leukemia
[7] = test system: UACC-62 melanoma
[8] = test system: MALME-3M melanoma
[9] = test system: U251 CNS
[10] = test system: SK-MEL-2 melanoma

SMILES	TGI [1]	TGI [2]	TGI [3]	TGI [4]	TGI [5]	TGI [6]	TGI [7]	TGI [8]	TGI [9]	TGI [10]	GI50 [1]	GI50 [3]	GI50 [4]	GI50 [5]	GI50 [6]	GI50 [7]	GI50 [8]	GI50 [9]	GI50 [10]	GI50 [2]
CC(C)=CCC/C(C)=C/CCC1(C)C=Cc2c(c3ccccc3oc2=O)O1 (stereo not drawn)	29.3 µM	28.8 µM	30 µM	25 µM	30.8 µM	> 75.8 µM	24 µM	43.7 µM	28.8 µM	31.4 µM	–	–	–	–	–	–	–	–	–	–
c1ccc2cc3c(cc2c1)OP1(Oc2cccc4cccnc24)(O3)Oc2cc3ccccc3cc2O1	35.4 µM	20.1 µM	44.5 µM	76.3 µM	> 100 µM	5.78 µM	9.39 µM	> 76.8 µM	> 100 µM	79.6 µM	–	–	–	–	–	–	–	–	–	–
OC1COC(OCc2ccccc2)C(O)C1O (stereo not drawn)	> 100 µM	> 100 µM	> 100 µM	> 100 µM	> 100 µM	> 100 µM	> 100 µM	> 100 µM	> 100 µM	> 100 µM	–	–	–	–	–	–	–	–	–	–
O=C(O)C12CC3CC(C1)C2C=C3P(=O)(O)O (stereo not drawn)	> 100 µM	> 100 µM	> 100 µM	> 100 µM	> 100 µM	> 100 µM	> 100 µM	> 100 µM	> 100 µM	> 100 µM	–	–	–	–	–	–	–	–	–	–
CC1SC(c2ccc(Cl)cc2)N(CCc2cccs2)C1=O (stereo not drawn)	2.75 µM	–	3.26 µM	2.2 µM	5.77 µM	8.73 µM	2.35 µM	4.05 µM	3.18 µM	2.72 µM	1340 nM	1500 nM	855 nM	1800 nM	2580 nM	1050 nM	2120 nM	1630 nM	1360 nM	–
COCCOCOC(C)(C)[C@H](CCO)O[Si](c1ccccc1)(c1ccccc1)C(C)(C)C	15.4 µM	26.9 µM	–	23.6 µM	22.9 µM	9.05 µM	28.3 µM	30.5 µM	24.5 µM	–	–	–	–	–	–	–	–	–	–	–
Cc1cccc(CNc2ncnc3[nH]ncc23)c1	> 100 µM	> 100 µM	> 100 µM	> 100 µM	> 100 µM	> 100 µM	> 100 µM	> 100 µM	> 100 µM	> 100 µM	–	–	–	–	–	–	–	–	–	–
C=CCNC(=O)CN(CC(=O)OC)C1CCCCC1N(CC(=O)OC)CC(=O)OC (stereo not drawn)	> 100 µM	> 100 µM	> 100 µM	> 100 µM	> 100 µM	> 100 µM	> 100 µM	> 100 µM	> 100 µM	> 100 µM	–	–	–	–	–	–	–	–	–	–
O=C1c2ccccc2C(=O)c2c1cc1c(c2[N+](=O)[O-])OCO1	4.68 µM	6.02 µM	7.16 µM	3.75 µM	7.62 µM	8.94 µM	–	8.9 µM	7.72 µM	5.14 µM	2010 nM	2060 nM	1270 nM	1210 nM	465 nM	–	2810 nM	2150 nM	2560 nM	1540 nM
Cc1cn(C2CC(O)C(Cn3nncc3Cn3ncc(=O)[nH]c3=O)O2)c(=O)[nH]c1=O (stereo not drawn)	–	> 100 µM	> 100 µM	> 100 µM	> 100 µM	–	> 100 µM	> 100 µM	> 100 µM	> 100 µM	–	–	–	–	–	–	–	–	–	–
Nc1n[nH]c(CCCCCCCc2nc(N)n[nH]2)n1	> 100 µM	> 100 µM	–	–	–	> 100 µM	> 100 µM	> 100 µM	> 100 µM	> 100 µM	–	–	–	–	–	–	–	–	–	–
COc1cc(C(=O)C2CC3(CCC2(O)c2cc(OC)c(OC)c(OC)c2)CC(=O)Nc2ccccc2C3=O)cc(OC)c1OC (stereo not drawn)	–	> 100 µM	> 100 µM	> 100 µM	> 100 µM	78.8 µM	> 100 µM	> 100 µM	> 100 µM	> 100 µM	–	–	–	–	–	–	–	–	–	–
COc1cc(/C=C/C2=C(C#N)C(=O)OC2(C)C)ccc1O	44.4 µM	> 100 µM	> 100 µM	> 100 µM	> 100 µM	> 100 µM	> 100 µM	> 100 µM	31.7 µM	> 100 µM	–	–	–	–	–	–	–	–	–	–
Cc1c(C2=NN=C(N=Nc3c(O)cccc3O)/C2=C/c2ccccc2)c(=O)n(-c2ccccc2)n1C	> 100 µM	> 100 µM	> 100 µM	> 100 µM	> 100 µM	> 100 µM	> 100 µM	> 100 µM	> 100 µM	> 100 µM	–	–	–	–	–	–	–	–	–	–
CC(C)=CC(=O)OC1C2C(C)=CC(O)C(O)C2(C)C2C3(O)OCC24C(CC(=O)OC14)C(C)C3O (stereo not drawn)	0.103 µM	8.57 µM	0.388 µM	0.26 µM	0.706 µM	0.409 µM	0.263 µM	0.0844 µM	0.248 µM	0.655 µM	–	–	–	–	–	–	–	–	–	–
